# Molecular target: T1, monkey chymase (Macaca fascicularis, UniProt P56435)
# T1 construct: chymase was extracted from homogenized monkey cheek pouch and stomach; from tissue; host or cells: monkey cheek pouch and stomach
# T1 sequence (P56435 22-247): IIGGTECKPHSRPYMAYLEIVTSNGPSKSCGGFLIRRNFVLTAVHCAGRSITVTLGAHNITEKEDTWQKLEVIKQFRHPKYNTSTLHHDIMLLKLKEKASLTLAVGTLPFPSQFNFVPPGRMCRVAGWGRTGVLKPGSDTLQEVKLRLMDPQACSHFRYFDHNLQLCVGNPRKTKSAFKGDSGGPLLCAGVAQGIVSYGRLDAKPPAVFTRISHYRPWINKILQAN
# Test: Monkey chymase inhibitory activity (in vitro, angiotensin I substrate)
# Assay type: biochemical
# Details: Monkey Chymase Inhibition (IC50:nM), chymase purified from monkey cheek pouch and stomach; substrate angiotensin I; 37° C.
# Method: The inhibitory activities of the compounds on monkey chymase and human chymase were tested in vitro. The test compounds are as shown by Compound Nos. in Tables 13 and 14.
# Preparation of Monkey Chymase
# Chymase was purified from monkey cheek pouch and stomach in the following manner.
# Briefly, chymase was extracted from homogenized monkey cheek pouch and stomach with 0.01 mol/1000 ml sodium phosphate buffer, pH 7.4, containing 2 mol/1000 ml KCl and 0.1% Nonidet P-40 (Amresco Inc.). The solution containing chymase was applied to a heparin actigel column, and the chymase-rich fractions were collected.
# Measurement of Chymase Inhibitory Activity (In Vitro Assay)
# Briefly, the purified monkey or human chymase was diluted to an appropriate concentration with 0.01 mol/1000 ml sodium phosphate buffer, pH 7.4, containing 2 mol/1000 ml KCl and 0.1% Nonidet P-40 and used as enzyme solution. Angiotensin I (Peptide Institute Inc.) was diluted with water to 5 mg/ml and used as substrate solution. Test compounds were serially diluted with 10% DMSO. […] After pre-incubation of the mixture at 37° C., 20 μl of the substrate solution was added to the enzyme-test compound mixture and the new mixture was incubated at 37° C. Fifty μl of 30% trichloroacetic acid solution was finally added to stop the enzymatic reaction.
# The amount of L-His-L-Leu was measured as angiotensin II produced by the enzymatic reaction. Briefly, 10 μl of the reaction mixture and 10 μl of 1% orthophthalaldehyde solution dissolved in methanol were mixed with 100 μl of 2 mol/1000 ml NaOH and kept at room temperature. The reaction was then stopped by adding 10 μl of 6 mol/1000 ml HCl.
row,SMILES,IC50
1,CC(C)[C@H](NC(=O)c1ccncc1)C(=O)N1CCC[C@H]1C(=O)NC(Cc1csc2ccccc12)C(=O)C(F)(F)F (some centres unmarked) [I-A-66],49 nM

# Same assay, conditions: chymase purified from monkey cheek pouch and stomach; substrate angiotensin I; 37° C.; read-out: Monkey Chymase Inhibition (IC50:nM)
row,SMILES,IC50
1,Cc1noc(C)c1C(=O)N[C@H](C(=O)N1CCC[C@H]1C(=O)NC(Cc1csc2ccccc12)C(=O)C(F)(F)F)C1CCCCC1 (some centres unmarked) [I-A-6],33 nM
2,Cc1onc(-c2ccccc2)c1C(=O)N[C@H](C(=O)N1CCC[C@H]1C(=O)NC(Cc1csc2ccccc12)C(=O)C(F)(F)F)C(C)C (some centres unmarked) [I-A-7],34 nM
3,Cc1noc(C)c1C(=O)N[C@@H](Cc1ccccc1)C(=O)N1CCC[C@H]1C(=O)NC(Cc1csc2ccccc12)C(=O)C(F)(F)F (some centres unmarked) [I-A-8],48 nM
4,Cc1noc(C)c1C(=O)N[C@H](C(=O)N1CCC[C@H]1C(=O)NC(Cc1coc2ccccc12)C(=O)C(F)(F)F)C(C)C (some centres unmarked) [I-A-9],61 nM
5,CC[C@H](NC(=O)c1c(C)noc1C)C(=O)N1CCC[C@H]1C(=O)NC(Cc1ccc2ccccc2c1)C(=O)C(F)(F)F (some centres unmarked) [I-A-13],50 nM
6,Cc1noc(C)c1C(=O)N[C@@H](Cc1ccccc1)C(=O)N1CCC[C@H]1C(=O)NC(Cc1ccccc1)C(=O)C(F)(F)F (some centres unmarked) [I-A-14],59 nM
7,Cc1noc(C)c1C(=O)N[C@H](C(=O)N1CCC[C@H]1C(=O)NC(Cc1cccc2ccccc12)C(=O)C(F)(F)F)C(C)C (some centres unmarked) [I-A-15],82 nM
8,Cc1noc(C)c1C(=O)N[C@H](C(=O)N1CCC[C@H]1C(=O)NC(CC1CCCCC1)C(=O)C(F)(F)F)C(C)C (some centres unmarked) [I-A-16],110 nM
9,CC[C@H](NC(=O)c1snnc1C)C(=O)N1CCC[C@H]1C(=O)NC(Cc1csc2ccccc12)C(=O)C(F)(F)F (some centres unmarked) [I-A-21],19 nM
10,Cc1nnsc1C(=O)N[C@H](C(=O)N1CCC[C@H]1C(=O)NC(Cc1ccc2ccccc2c1)C(=O)C(F)(F)F)C(C)C (some centres unmarked) [I-A-22],37 nM
11,CC[C@H](NC(=O)c1snnc1C)C(=O)N1CCC[C@H]1C(=O)NC(Cc1ccc2ccccc2c1)C(=O)C(F)(F)F (some centres unmarked) [I-A-23],50 nM
12,Cc1nnsc1C(=O)N[C@H](C(=O)N1CCC[C@H]1C(=O)NC(Cc1ccc2c(c1)CCC2)C(=O)C(F)(F)F)C(C)C (some centres unmarked) [I-A-24],150 nM
13,CC(C)[C@H](NC(=O)c1ccc2snnc2c1)C(=O)N1CCC[C@H]1C(=O)NC(Cc1csc2ccccc12)C(=O)C(F)(F)F (some centres unmarked) [I-A-55],63 nM
14,CC(C)[C@H](NC(=O)c1ccnc2ccccc12)C(=O)N1CCC[C@H]1C(=O)NC(Cc1csc2ccccc12)C(=O)C(F)(F)F (some centres unmarked) [I-A-56],47 nM
15,CC(C)[C@H](NC(=O)c1ccc2c(c1)OCO2)C(=O)N1CCC[C@H]1C(=O)NC(Cc1csc2ccccc12)C(=O)C(F)(F)F (some centres unmarked) [I-A-57],100 nM
16,CC(C)[C@H](NC(=O)c1noc2ccccc12)C(=O)N1CCC[C@H]1C(=O)NC(Cc1csc2ccccc12)C(=O)C(F)(F)F (some centres unmarked) [I-A-58],210 nM
17,CC(C)[C@H](NC(=O)c1onc2ccccc12)C(=O)N1CCC[C@H]1C(=O)NC(Cc1csc2ccccc12)C(=O)C(F)(F)F (some centres unmarked) [I-A-59],250 nM
18,Cc1nc2c(C(=O)N[C@H](C(=O)N3CCC[C@H]3C(=O)NC(Cc3csc4ccccc34)C(=O)C(F)(F)F)C(C)C)cccc2o1 (some centres unmarked) [I-A-60],430 nM

row,SMILES,IC50
1,Cc1nc(C)c(C(=O)N[C@H](C(=O)N2CCC[C@H]2C(=O)NC(Cc2csc3ccccc23)C(=O)C(F)(F)F)C(C)C)s1 (some centres unmarked) [I-A-65],37 nM
2,CC(C)[C@H](NC(=O)c1ccccn1)C(=O)N1CCC[C@H]1C(=O)NC(Cc1csc2ccccc12)C(=O)C(F)(F)F (some centres unmarked) [I-A-67],94 nM
3,CC(C)[C@H](NC(=O)c1snnc1-c1ccccc1)C(=O)N1CCC[C@H]1C(=O)NC(Cc1csc2ccccc12)C(=O)C(F)(F)F (some centres unmarked) [I-A-68],27 nM
4,Cc1nc(C)c(C(=O)N[C@H](C(=O)N2CCC[C@H]2C(=O)NC(Cc2csc3ccccc23)C(=O)C(F)(F)F)C(C)C)o1 (some centres unmarked) [I-A-69],98 nM
5,CC(C)[C@H](NC(=O)c1cccs1)C(=O)N1CCC[C@H]1C(=O)NC(Cc1csc2ccccc12)C(=O)C(F)(F)F (some centres unmarked) [I-A-70],140 nM
6,CC(C)[C@H](NC(=O)c1onc2cccnc12)C(=O)N1CCC[C@H]1C(=O)NC(Cc1csc2ccccc12)C(=O)C(F)(F)F (some centres unmarked) [I-A-71],140 nM
7,CC(C)[C@H](NC(=O)c1ccsc1)C(=O)N1CCC[C@H]1C(=O)NC(Cc1csc2ccccc12)C(=O)C(F)(F)F (some centres unmarked) [I-A-72],160 nM
8,CC(C)[C@H](NC(=O)c1cccnc1Oc1ccccc1)C(=O)N1CCC[C@H]1C(=O)NC(Cc1csc2ccccc12)C(=O)C(F)(F)F (some centres unmarked) [I-A-73],300 nM
9,CC(C)[C@H](NC(=O)c1ccco1)C(=O)N1CCC[C@H]1C(=O)NC(Cc1csc2ccccc12)C(=O)C(F)(F)F (some centres unmarked) [I-A-74],350 nM
10,CC(C)[C@H](NC(=O)c1nsc(Cl)c1Cl)C(=O)N1CCC[C@H]1C(=O)NC(Cc1csc2ccccc12)C(=O)C(F)(F)F (some centres unmarked) [I-A-75],380 nM
11,CC(C)[C@H](NC(=O)CN1CCN(CC(=O)O)C1=O)C(=O)N1CCC[C@H]1C(=O)NC(Cc1ccc2ccccc2c1)C(=O)C(F)(F)F (some centres unmarked) [I-A-83],61 nM
12,CC(C)[C@H](NC(=O)CN1CCN(CC(=O)OC(C)(C)C)C1=O)C(=O)N1CCC[C@H]1C(=O)NC(Cc1ccc2ccccc2c1)C(=O)C(F)(F)F (some centres unmarked) [I-A-84],190 nM
13,CC(C)[C@H](NC(=O)CN1CCN(CC(=O)O)C1=O)C(=O)N1CCC[C@H]1C(=O)NC(Cc1cc2ccccc2s1)C(=O)C(F)(F)F (some centres unmarked) [I-A-85],75 nM
14,CC(C)[C@H](NC(=O)CN1CCN(CC(=O)OC(C)(C)C)C1=O)C(=O)N1CCC[C@H]1C(=O)NC(Cc1cc2ccccc2s1)C(=O)C(F)(F)F (some centres unmarked) [I-A-86],210 nM
15,CC(C)[C@H](NC(=O)CN1CCN(Cc2ccccc2)C1=O)C(=O)N1CCC[C@H]1C(=O)NC(Cc1cc2ccccc2s1)C(=O)C(F)(F)F (some centres unmarked) [I-A-87],250 nM
16,CC(C)[C@H](NC(=O)Cn1ccc(=O)n(CC(=O)O)c1=O)C(=O)N1CCC[C@H]1C(=O)NC(Cc1ccccc1)C(=O)C(F)(F)F (some centres unmarked) [I-A-88],68 nM
17,CC(C)[C@H](NC(=O)Cn1ccc(=O)n(CC(=O)O)c1=O)C(=O)N1CCC[C@H]1C(=O)NC(Cc1ccc(Cl)cc1)C(=O)C(F)(F)F (some centres unmarked) [I-A-89],150 nM

# Further lines, results first:
row,IC50,SMILES
1,77 nM,Cc1noc(C)c1C(=O)N[C@H](C(=O)N1CCC[C@H]1C(=O)NC(Cc1c[nH]c2ccccc12)C(=O)C(F)(F)F)C(C)C (some centres unmarked) [I-A-10]
2,140 nM,Cc1noc(C)c1C(=O)N[C@H](C(=O)N1CCC[C@H]1C(=O)NC(Cc1cccs1)C(=O)C(F)(F)F)C(C)C (some centres unmarked) [I-A-17]
3,220 nM,Cc1noc(C)c1C(=O)N[C@H](C(=O)N1CCC[C@H]1C(=O)NC(Cc1ccc2c(c1)CCC2)C(=O)C(F)(F)F)C(C)C (some centres unmarked) [I-A-18]
4,44 nM,Cc1noc(C)c1C(=O)N[C@H](C(=O)N1CCC[C@H]1C(=O)NC(Cc1ccccc1)C(=O)C(F)(F)F)C(C)C (some centres unmarked) [I-A-26]
5,51 nM,Cc1noc(C)c1C(=O)N[C@H](C(=O)N1CCC[C@H]1C(=O)NC(Cc1ccccc1F)C(=O)C(F)(F)F)C(C)C (some centres unmarked) [I-A-27]
6,54 nM,Cc1noc(C)c1C(=O)N[C@H](C(=O)N1CCC[C@H]1C(=O)NC(Cc1ccc(O)cc1)C(=O)C(F)(F)F)C(C)C (some centres unmarked) [I-A-28]
7,57 nM,Cc1noc(C)c1C(=O)N[C@H](C(=O)N1CCC[C@H]1C(=O)NC(Cc1ccc(Cl)cc1)C(=O)C(F)(F)F)C(C)C (some centres unmarked) [I-A-29]
8,65 nM,Cc1noc(C)c1C(=O)N[C@H](C(=O)N1CCC[C@H]1C(=O)NC(Cc1ccc(F)cc1)C(=O)C(F)(F)F)C(C)C (some centres unmarked) [I-A-30]
9,73 nM,Cc1ccccc1CC(NC(=O)[C@@H]1CCCN1C(=O)[C@@H](NC(=O)c1c(C)noc1C)C(C)C)C(=O)C(F)(F)F (some centres unmarked) [I-A-33]
10,80 nM,Cc1ccc(CC(NC(=O)[C@@H]2CCCN2C(=O)[C@@H](NC(=O)c2c(C)noc2C)C(C)C)C(=O)C(F)(F)F)cc1 (some centres unmarked) [I-A-35]
11,95 nM,COc1ccc(CC(NC(=O)[C@@H]2CCCN2C(=O)[C@@H](NC(=O)c2c(C)noc2C)C(C)C)C(=O)C(F)(F)F)cc1 (some centres unmarked) [I-A-37]
12,110 nM,Cc1noc(C)c1C(=O)N[C@H](C(=O)N1CCC[C@H]1C(=O)NC(Cc1cccc(Cl)c1)C(=O)C(F)(F)F)C(C)C (some centres unmarked) [I-A-38]
13,120 nM,Cc1noc(C)c1C(=O)N[C@H](C(=O)N1CCC[C@H]1C(=O)NC(Cc1ccccc1Cl)C(=O)C(F)(F)F)C(C)C (some centres unmarked) [I-A-39]
14,120 nM,Cc1cccc(CC(NC(=O)[C@@H]2CCCN2C(=O)[C@@H](NC(=O)c2c(C)noc2C)C(C)C)C(=O)C(F)(F)F)c1 (some centres unmarked) [I-A-40]
15,130 nM,Cc1noc(C)c1C(=O)N[C@H](C(=O)N1CCC[C@H]1C(=O)NC(Cc1ccc(I)cc1)C(=O)C(F)(F)F)C(C)C (some centres unmarked) [I-A-42]
16,140 nM,Cc1noc(C)c1C(=O)N[C@H](C(=O)N1CCC[C@H]1C(=O)NC(Cc1ccc(Cl)cc1)C(=O)C(F)(F)F)C(C)C (some centres unmarked) [I-A-43]
17,170 nM,Cc1noc(C)c1C(=O)N[C@H](C(=O)N1CCC[C@H]1C(=O)NC(Cc1ccccc1C(F)(F)F)C(=O)C(F)(F)F)C(C)C (some centres unmarked) [I-A-46]

# Reference: US6852744B2, “Pyrrolidine derivatives and their use as chymase inhibitor” (Dainippon Pharmaceutical Co., Ltd., priority 2000, dated 2005)
